20 compounds from patent US9085555B2, “Complement pathway modulators and uses thereof” (priority 2011, dated 2015) can be followed below.

pIC50: −log10 of the molar value.

For this experiment, the target named is Factor D (Homo sapiens (Human), UniProt P00746). Briefly: biochemical. In kind it is biochemical. The settings on record: read-out: IC50.
Factor D, sequence (P00746 26-253): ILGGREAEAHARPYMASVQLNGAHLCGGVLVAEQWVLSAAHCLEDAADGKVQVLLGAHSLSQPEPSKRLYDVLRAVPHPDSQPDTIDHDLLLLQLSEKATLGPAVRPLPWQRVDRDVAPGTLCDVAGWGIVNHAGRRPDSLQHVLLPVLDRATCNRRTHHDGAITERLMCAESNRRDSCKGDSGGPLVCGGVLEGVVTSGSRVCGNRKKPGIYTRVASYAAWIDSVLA

Regarding `CN(C)CCOc1ccc2c(c1)c(CC(=O)N1[C@@H]3C[C@@H]3C[C@H]1C(=O)NCc1cccc(Cl)c1F)cn2C(N)=O` [Example 472, 3-{2-[(1R,3S,5R)-3-(3-Chloro-2-fluoro-benzylcarbamoyl)-2-aza-bicyclo[3.1.0]hex-2-yl]-2-oxo-ethyl}-5-(2-dimethylamino-ethoxy)-indole-1-carboxylic acid amide], the negative-log IC50 (pIC50) (commonly −log10 of the IC50, conventionally taken in molar units) was 6.59.

For the compound `NC(=O)n1cc(CC(=O)N2[C@@H]3C[C@@H]3C[C@H]2C(=O)NCc2cccc(Cl)c2F)c2ccc(CC(=O)O)cc21` [Example 473, (1-Carbamoyl-3-{2-[(1R,3S,5R)-3-(3-chloro-2-fluoro-benzylcarbamoyl)-2-aza-bicyclo[3.1.0]hex-2-yl]-2-oxo-ethyl}-1H-indol-6-yl)-acetic acid], the pIC50 was 6.33.

For the compound `NC(=O)n1cc(CC(=O)N2[C@@H]3C[C@@H]3C[C@H]2C(=O)NCc2cccc(Cl)c2F)c2ccc(CCO)cc21` [Example 474, 3-{2-[(1R,3S,5R)-3-(3-Chloro-2-fluoro-benzylcarbamoyl)-2-aza-bicyclo[3.1.0]hex-2-yl]-2-oxo-ethyl}-6-(2-hydroxy-ethyl)-indole-1-carboxylic acid amide], the pIC50 was 7.02.

With `NC(=O)c1cn(CC(=O)N2[C@@H]3C[C@@H]3C[C@H]2C(=O)NCc2cccc(Cl)c2F)c2ccccc12` [Example 475, 1-{2-[(1R,3S,5R)-3-(3-Chloro-2-fluoro-benzylcarbamoyl)-2-aza-bicyclo[3.1.0]hex-2-yl]-2-oxo-ethyl}-1H-indole-3-carboxylic acid amide], the negative-log IC50 (pIC50) was 6.46.

Consider `NC(=O)c1cn(CC(=O)N2C[C@H](F)C[C@H]2C(=O)NCc2cccc(Cl)c2F)c2ccccc12` [Example 476, 1-{2-[(2S,4R)-2-(3-Chloro-2-fluoro-benzylcarbamoyl)-4-fluoro-pyrrolidin-1-yl]-2-oxo-ethyl}-1H-indole-3-carboxylic acid amide], for which the pIC50 was 7.48.

For `COc1cccc2c(C(N)=O)cn(CC(=O)N3C[C@H](F)C[C@H]3C(=O)NCc3cccc(Cl)c3F)c12` [Example 477, 1-{2-[(2S,4R)-2-(3-Chloro-2-fluoro-benzylcarbamoyl)-4-fluoro-pyrrolidin-1-yl]-2-oxo-ethyl}-7-methoxy-1H-indole-3-carboxylic acid amide], the negative logarithm of the IC50 (pIC50) was 6.20.

Regarding `CC(=O)c1cn(CC(=O)N2CCCC[C@H]2C(=O)NCc2cccc(Cl)c2F)c2ccccc12` [Example 478, (S)-1-[2-(3-Acetyl-indol-1-yl)-acetyl]-piperidine-2-carboxylic acid 3-chloro-2-fluoro-benzylamide], the pIC50 is 6.59.

As to `NC(=O)c1cn(CC(=O)N2C[C@H](F)C[C@H]2C(=O)NCc2cccc(Cl)c2F)c2cc(Br)c(F)cc12` [Example 479, 6-Bromo-1-{2-[(2S,4R)-2-(3-chloro-2-fluoro-benzylcarbamoyl)-4-fluoro-pyrrolidin-1-yl]-2-oxo-ethyl}-5-fluoro-1H-indole-3-carboxylic acid amide], the pIC50 was 7.05.

Regarding `NC(=O)c1cn(CC(=O)N2C[C@H](F)C[C@H]2C(=O)NCc2cccc(Br)c2F)c2ccccc12` [Example 481, 1-{2-[(2S,4R)-2-(3-Bromo-2-fluoro-benzylcarbamoyl)-4-fluoro-pyrrolidin-1-yl]-2-oxo-ethyl}-1H-indole-3-carboxylic acid amide], the pIC50 is 7.66.

Take `CC(=O)c1cn(CC(=O)N2C[C@](C)(F)C[C@H]2C(=O)NCc2cccc(Cl)c2F)c2cnccc12` [Example 482, (2S,4R)-1-[2-(3-Acetyl-pyrrolo[2,3-c]pyridin-1-yl)-acetyl]-4-fluoro-4-methyl-pyrrolidine-2-carboxylic acid 3-chloro-2-fluoro-benzylamide]: the negative-log IC50 (pIC50) was 6.73.

As for `CC(=O)c1cn(CC(=O)N2[C@@H]3C[C@@H]3C[C@H]2C(=O)NCc2cccc(Cl)c2F)c2ncccc12` [Example 483, (1R,3S,5R)-2-[2-(3-Acetyl-pyrrolo[2,3-b]pyridin-1-yl)-acetyl]-2-aza-bicyclo[3.1.0]hexane-3-carboxylic acid 3-chloro-2-fluoro-benzylamide], the pIC50 was 7.22.

Take `CC(=O)c1cn(CC(=O)N2[C@@H]3C[C@@H]3C[C@H]2C(=O)NCc2ccc(Cl)s2)c2ncccc12` [Example 484, (1R,3S,5R)-2-[2-(3-Acetyl-pyrrolo[2,3-b]pyridin-1-yl)-acetyl]-2-aza-bicyclo[3.1.0]hexane-3-carboxylic acid (5-chloro-thiophen-2-ylmethyl)-amide]: the negative-log IC50 (pIC50) is 6.45.

On to `COc1ccc2c(c1)c(C(C)=O)cn2CC(=O)N1C[C@H](F)[C@@H](OC)[C@H]1C(=O)NCc1cccc(Cl)c1F` [Example 485, (2S,3S,4S)-1-[2-(3-Acetyl-5-methoxy-indol-1-yl)-acetyl]-4-fluoro-3-methoxy-pyrrolidine-2-carboxylic acid 3-chloro-2-fluoro-benzylamide], for which the negative-log IC50 (pIC50) was 7.82.

Consider `NC(=O)c1cn(CC(=O)N2C[C@H](F)C[C@H]2C(=O)Nc2cccc(Cl)c2F)c2ccccc12` [Example 486, 1-{2-[(2S,4R)-2-(3-Chloro-2-fluoro-phenylcarbamoyl)-4-fluoro-pyrrolidin-1-yl]-2-oxo-ethyl}-1H-indole-3-carboxylic acid amide], for which the negative logarithm of the IC50 (pIC50) was 5.61.

In the case of `COc1ccc2c(C(C)=O)cn(CC(=O)N3C[C@H](F)[C@@H](OC)[C@H]3C(=O)NCc3cccc(Cl)c3F)c2c1` [Example 487, (2S,3S,4S)-1-[2-(3-Acetyl-6-methoxy-indol-1-yl)-acetyl]-4-fluoro-3-methoxy-pyrrolidine-2-carboxylic acid 3-chloro-2-fluoro-benzylamide], the negative-log IC50 (pIC50) is 7.89.

Take `NC(=O)c1cn(CC(=O)N2C[C@H](F)C[C@H]2C(=O)NCc2cccc(Cl)c2F)c2ccc(Cl)cc12` [Example 488, 5-Chloro-1-{2-[(2S,4R)-2-(3-chloro-2-fluoro-benzylcarbamoyl)-4-fluoro-pyrrolidin-1-yl]-2-oxo-ethyl}-1H-indole-3-carboxylic acid amide]: the pIC50 was 6.60.

With `NC(=O)c1cn(CC(=O)N2C[C@H](F)C[C@H]2C(=O)NCc2cccc(Cl)c2F)c2c(Cl)cccc12` [Example 489, 7-Chloro-1-{2-[(2S,4R)-2-(3-chloro-2-fluoro-benzylcarbamoyl)-4-fluoro-pyrrolidin-1-yl]-2-oxo-ethyl}-1H-indole-3-carboxylic acid amide], the pIC50 was 6.91.

On to `COC[C@@]12C[C@@H](C(=O)NCc3cccc(Cl)c3F)N(C(=O)Cn3cc(C(C)=O)c4cccnc43)[C@@H]1C2` [Example 490, (1R,3S,5S)-2-[2-(3-Acetyl-pyrrolo[2,3-b]pyridin-1-yl)-acetyl]-5-methoxymethyl-2-aza-bicyclo[3.1.0]hexane-3-carboxylic acid 3-chloro-2-fluoro-benzylamide], for which the negative-log IC50 (pIC50) was 6.67.

As for `NC(=O)c1cn(CC(=O)N2C[C@H](F)C[C@H]2C(=O)NCc2cccc(Cl)c2F)c2cc(Cl)ccc12` [Example 491, 6-Chloro-1-{2-[(2S,4R)-2-(3-chloro-2-fluoro-benzyl-carbamoyl)-4-fluoro-pyrrolidin-1-yl]-2-oxo-ethyl}-1H-indole-3-carboxylic acid amide], the negative logarithm of the IC50 (pIC50) was 7.55.

For the compound `NC(=O)c1cn(CC(=O)N2C[C@H](F)C[C@H]2C(=O)NCc2cccc(Cl)c2F)c2cc(F)c(F)cc12` [Example 492, 1-{2-[(2S,4R)-2-(3-Chloro-2-fluoro-benzylcarbamoyl)-4-fluoro-pyrrolidin-1-yl]-2-oxo-ethyl}-5,6-difluoro-1H-indole-3-carboxylic acid amide], the pIC50 was 6.63.
